US20250325542A1, “INHIBITORS OF ANTIMOCROBIAL RESISTANCE AND METHOS USING SAME” (Baylor College of Medicine, priority 2022, published 2025)

Target: KPC-2 (Klebsiella pneumoniae, UniProt Q9F663)
Test: KPC-2 enzyme inhibition (Ki)
Assay type: biochemical
Conditions: not given
From the text: Several hits were identified from the qDOS38_1 library against the KPC-2 enzyme. All compounds were synthesized without linker C1a. Among the hit compounds, CDD-2312 had the highest enrichment score of 5.9 but a lower count number of 115 compared to other libraries screened at the same time.

KPC-2, sequence (Q9F663 whole entry, looked up, species assumed): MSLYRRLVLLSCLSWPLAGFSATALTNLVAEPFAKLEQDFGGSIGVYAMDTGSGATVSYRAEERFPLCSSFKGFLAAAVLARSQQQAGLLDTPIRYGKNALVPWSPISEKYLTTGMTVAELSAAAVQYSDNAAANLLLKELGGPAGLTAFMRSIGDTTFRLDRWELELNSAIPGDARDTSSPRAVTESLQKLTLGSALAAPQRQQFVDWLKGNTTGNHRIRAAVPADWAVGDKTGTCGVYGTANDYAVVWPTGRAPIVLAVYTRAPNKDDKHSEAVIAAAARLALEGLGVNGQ

SMILES	Ki [µM]
CNC(=O)c1cncc(-c2cnc(NCC(=O)O)nc2)c1 [CDD-2308, (5-(5-(methylcarbamoyl)pyridin-3-yl)pyrimidin-2-yl)glycine]	3580 ± 1150
CNC(=O)c1ccc(-c2cnc(NCC(=O)O)nc2)cc1F [CDD-2309, (5-(3-fluoro-4-(methylcarbamoyl)phenyl)pyrimidin-2-yl)glycine]	980 ± 180
COc1cc(-c2cnc(NCC(=O)O)nc2)cc(C=O)c1OCC(=O)O [CDD-2311, (5-(4-(carboxymethoxy)-3-formyl-5-methoxyphenyl)pyrimidin-2-yl)glycine]	522 ± 113
CNC(=O)c1cc2cc(-c3cnc(NCC(=O)O)nc3)ccc2nc1C [CDD-2310, (5-(2-methyl-3-(methylcarbamoyl)quinolin-6-yl)pyrimidin-2-yl)glycine]	1240 ± 532

Target: OXA-48 (Klebsiella pneumoniae, UniProt Q6XEC0)
Sequence (Q6XEC0 whole entry, looked up, species assumed): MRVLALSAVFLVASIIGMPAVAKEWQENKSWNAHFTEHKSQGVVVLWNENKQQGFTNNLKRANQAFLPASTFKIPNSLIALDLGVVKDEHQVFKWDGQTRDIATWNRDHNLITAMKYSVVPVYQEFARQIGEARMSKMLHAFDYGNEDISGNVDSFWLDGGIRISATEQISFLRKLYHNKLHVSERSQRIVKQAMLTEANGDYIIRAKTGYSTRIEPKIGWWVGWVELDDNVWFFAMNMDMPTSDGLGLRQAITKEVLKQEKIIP
Test: biochemical
Assay type: biochemical
Conditions: not given

SMILES	Ki [µM]
CNC(=O)CCc1ccc(CNc2cccc(CCCNCc3ccccc3-c3cccc(C(=O)O)c3)c2)cc1 [CDD-2819, 2′-(((3-(3-((4-(3-(methylamino)-3-oxopropyl)benzyl)amino)phenyl)propyl)amino)methyl)-[1,1′-biphenyl]-3-carboxylic acid]	88 ± 4.4
COc1cc(-c2cc(O)cc(C(=O)O)c2)ccc1C(=O)O [CDD-2724, 5-hydroxy-3′-methoxy-[1,1′-biphenyl]-3,4′-dicarboxylic acid]	0.63 ± 0.13

Same assay, conditions: nitrocefin 30 μM, OXA-48 0.1 nM; read-out: OXA-48 Ki

SMILES	Ki [µM]
CN(C)C(=O)C1CCN(c2ccc(CNCc3ccccc3-c3cccc(C(=O)O)c3)cc2C#N)CC1 [CDD-2836, 2′-(((3-cyano-4-(4-(dimethylcarbamoyl)piperidin-1-yl)benzyl)amino)methyl)-[1,1′-biphenyl]-3-carboxylic acid]	7.6 ± 1
Nc1cccc(CCCNCc2ccccc2-c2cccc(C(=O)O)c2)c1 [CDD-2820, 2′-(((3-(3-aminophenyl)propyl)amino)methyl)-[1,1′-biphenyl]-3-carboxylic acid]	127 ± 86

Same assay, conditions: relative to the related analogue named in the sentence

SMILES	fold decrease in Ki / enhancement of potency against OXA-48 [fold]
COc1cc(-c2cc(O)cc(C(=O)O)c2)ccc1C(=O)O [CDD-2724, 5-hydroxy-3′-methoxy-[1,1′-biphenyl]-3,4′-dicarboxylic acid]	2

Target: NDM-1 (Klebsiella pneumoniae, UniProt C7C422)
Sequence (C7C422 whole entry, looked up, species assumed): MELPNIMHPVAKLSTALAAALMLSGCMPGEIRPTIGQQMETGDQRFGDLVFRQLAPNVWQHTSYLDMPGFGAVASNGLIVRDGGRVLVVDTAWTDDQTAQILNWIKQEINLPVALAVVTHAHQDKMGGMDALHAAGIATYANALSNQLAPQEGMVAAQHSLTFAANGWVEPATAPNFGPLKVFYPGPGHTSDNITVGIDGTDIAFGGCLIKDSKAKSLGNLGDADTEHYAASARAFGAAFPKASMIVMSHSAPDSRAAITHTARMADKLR
Test: not given
Assay type: biochemical
Conditions: not given

SMILES	fold reduction of potency against NDM-1	Ki [µM]	NDM-1 Ki (μM)	fold improvement in potency against NDM-1 [fold]
CNC(=O)CCc1ccc(CNCc2cccc(NCc3ccc(-c4ccc(C(=O)O)c(O)c4)o3)c2)cc1 [CDD-2335, 2-hydroxy-4-(5-(((3-(((4-(3-(methylamino)-3-oxopropyl)benzyl)amino)methyl)phenyl)amino)methyl)furan-2-yl)benzoic acid]	4 fold	–	–	–
NCc1cccc(NC(=O)c2cccc(-c3ccc(C(=O)O)c(O)c3)c2)c1 [CDD-2985, 3′-((3-(aminomethyl)phenyl)carbamoyl)-3-hydroxy-[1,1′-biphenyl]-4-carboxylic acid]	–	29 ± 15	–	–
NCc1cccc(N2Cc3ccc(-c4ccc(C(=O)O)c(O)c4)cc3C2)c1 [CDD-3080, 4-(2-(3-(aminomethyl)phenyl)isoindolin-5-yl)-2-hydroxybenzoic acid]	–	43 ± 24	–	–
NCc1cccc(NCc2cc(C(=O)O)cc(-c3ccc(C(=O)O)c(O)c3)c2)c1 [CDD-2897, 5-(((3-(aminomethyl)phenyl)amino)methyl)-3′-hydroxy-[1,1′-biphenyl]-3,4′-dicarboxylic acid]	more than 10 fold	71 ± 37	–	–
Cc1cccc(NCc2cccc(-c3ccc(C(=O)O)c(O)c3)c2)c1 [CDD-2907, 3-hydroxy-3′-((m-tolylamino)methyl)-[1,1′-biphenyl]-4-carboxylic acid]	–	> 100	near-complete loss of potency	–
CNCc1ccc(-c2ccc(C(=O)O)c(O)c2)o1 [CDD-2363, 2-hydroxy-4-(5-((methylamino)methyl)furan-2-yl)benzoic acid]	–	397 ± 113	weak potency	–
NCc1cccc(NCc2ccc(-c3ccc(C(=O)O)c(O)c3)s2)c1 [CDD-2600, 4-(5-(((3-(aminomethyl)phenyl)amino)methyl)thiophen-2-yl)-2-hydroxybenzoic acid]	–	1.6 ± 0.3	–	2
CC(=O)NCc1cccc(NCc2cccc(-c3ccc(C(=O)O)c(O)c3)c2)c1 [CDD-2919, 3′-(((3-(acetamidomethyl)phenyl)amino)methyl)-3-hydroxy-[1,1′-biphenyl]-4-carboxylic acid]	–	> 100	near-complete loss of potency	–
NCc1cccc(NCc2cncc(-c3ccc(C(=O)O)c(O)c3)c2)c1 [CDD-2998, 4-(5-(((3-(aminomethyl)phenyl)amino)methyl)pyridin-3-yl)-2-hydroxybenzoic acid]	–	1.9 ± 0.6	–	–
CNCc1cccc(NCc2ccc(-c3ccc(C(=O)O)cc3)o2)c1 [CDD-2463, 4-(5-(((3-((methylamino)methyl)phenyl)amino)methyl)furan-2-yl)benzoic acid]	2.5 fold	8.5	–	–

Same assay, conditions: imipenem 40 μM, NDM-1 2 nM, 10 μM ZnSO4

SMILES	Ki [µM]
NCc1cc(O)cc(NCc2cccc(-c3ccc(C(=O)O)c(O)c3)c2)c1 [CDD-2974, 3′-(((3-(aminomethyl)-5-hydroxyphenyl)amino)methyl)-3-hydroxy-[1,1′-biphenyl]-4-carboxylic acid]	3.5 ± 1.4
CNC(=O)CCc1ccc(CNCc2cccc(NCc3ccc(-c4ccc(C(=O)O)c(O)c4)o3)c2)cc1 [CDD-2335, 2-hydroxy-4-(5-(((3-(((4-(3-(methylamino)-3-oxopropyl)benzyl)amino)methyl)phenyl)amino)methyl)furan-2-yl)benzoic acid]	13 ± 1.5
CNCc1cccc(NCc2ccc(-c3cccc(C(=O)O)c3)o2)c1 [CDD-2602, 3-(5-(((3-((methylamino)methyl)phenyl)amino)methyl)furan-2-yl)benzoic acid]	46 ± 11
CNCc1cccc(NCc2ccc(-c3ccc(O)c(C(=O)O)c3)o2)c1 [CDD-2510, 2-hydroxy-5-(5-(((3-((methylamino)methyl)phenyl)amino)methyl)furan-2-yl)benzoic acid]	60 ± 10
CNC(=O)CCc1ccc(CNCc2cccc(NCc3ccc(-c4ccccc4CC(=O)O)cc3)c2)cc1 [CDD-2336, 2-(4′-(((3-(((4-(3-(methylamino)-3-oxopropyl)benzyl)amino)methyl)phenyl)amino)methyl)-[1,1′-biphenyl]-2-yl)acetic acid]	144 ± 16
CNCc1cccc(NCc2cccc(-c3ccc(C(=O)O)c(O)c3)c2)c1 [CDD-2906, 3-hydroxy-3′-(((3-((methylamino)methyl)phenyl)amino)methyl)-[1,1′-biphenyl]-4-carboxylic acid]	11 ± 2
CNC(=O)C1CCC(C(=O)NCc2ccc(NCc3ccc(O)c(C(=O)O)c3)nc2)CC1 (stereo not drawn) [CDD-2395, 2-hydroxy-5-(((5-((4-(methylcarbamoyl)cyclohexane-1-carboxamido)methyl)pyridin-2-yl)amino)methyl)benzoic acid]	153 ± 28
NCc1cncc(NCc2cccc(-c3ccc(C(=O)O)c(O)c3)c2)c1 [CDD-2975, 3′-(((5-(aminomethyl)pyridin-3-yl)amino)methyl)-3-hydroxy-[1,1′-biphenyl]-4-carboxylic acid]	25 ± 14
CNC(=O)Cc1cccc(NCc2cccc(-c3ccc(C(=O)O)c(O)c3)c2)c1 [CDD-2920, 3-hydroxy-3′-(((3-(2-(methylamino)-2-oxoethyl)phenyl)amino)methyl)-[1,1′-biphenyl]-4-carboxylic acid]	87 ± 53
NCc1cccc(NCc2ccc(-c3cccc(C(=O)O)c3O)o2)c1 [CDD-2567, 3-(5-(((3-(aminomethyl)phenyl)amino)methyl)furan-2-yl)-2-hydroxybenzoic acid]	24 ± 1.5
NCc1cccc(NCc2ccnc(-c3ccc(C(=O)O)c(O)c3)c2)c1 [CDD-3060, 4-(4-(((3-(aminomethyl)phenyl)amino)methyl)pyridin-2-yl)-2-hydroxybenzoic acid]	8.1 ± 2
NCc1cccc(NCc2ccc(-c3ccc(C(=O)O)c(O)c3)cc2)c1 [CDD-2615, 4′-(((3-(aminomethyl)phenyl)amino)methyl)-3-hydroxy-[1,1′-biphenyl]-4-carboxylic acid]	14 ± 1.1
NCc1cccc(NCc2cc(-c3ccc(C(=O)O)c(O)c3)ccn2)c1 [CDD-3059, 4-(2-(((3-(aminomethyl)phenyl)amino)methyl)pyridin-4-yl)-2-hydroxybenzoic acid]	4.8 ± 0.4
CNC(=O)CCC1CCN(C(=O)c2ccc(CNCc3ccc(O)c(C(=O)O)c3)s2)CC1 [CDD-2371, 2-hydroxy-5-((((5-(4-(3-(methylamino)-3-oxopropyl)piperidine-1-carbonyl)thiophen-2-yl)methyl)amino)methyl)benzoic acid]	217 ± 46

System: E. coli expressing NDM-1
Test: not given
Assay type: cell-based
Conditions: comparison of imipenem MIC shifts

SMILES	synergy with imipenem
NCc1cccc(NC(=O)c2cccc(-c3ccc(C(=O)O)c(O)c3)c2)c1 [CDD-2985, 3′-((3-(aminomethyl)phenyl)carbamoyl)-3-hydroxy-[1,1′-biphenyl]-4-carboxylic acid]	reduced synergy compared to CDD-2376 and CDD-2511
NCc1cccc(N2Cc3ccc(-c4ccc(C(=O)O)c(O)c4)cc3C2)c1 [CDD-3080, 4-(2-(3-(aminomethyl)phenyl)isoindolin-5-yl)-2-hydroxybenzoic acid]	reduced synergy compared to CDD-2376 and CDD-2511
CNCc1cccc(NCc2ccc(-c3cccc(C(=O)O)c3O)o2)c1 [CDD-2522, 2-hydroxy-3-(5-(((3-((methylamino)methyl)phenyl)amino)methyl)furan-2-yl)benzoic acid]	reduced synergy compared to CDD-2376 and CDD-2511
